Source: patent publication US9844585B2, “Convection enhanced delivery apparatus, method, and application” (YALE UNIVERSITY, priority 2007, dated 2017)
Entries after “also recorded” stand apart in the source; their conditions may differ.

Key:
[1] = test system: rat brain; details: hyperosmolar mannitol co-infusion; cited from earlier work
[2] = co-infused with 20% mannitol; cited from earlier work
[3] = test system: striatum of the normal rat brain; assay: In vivo nanoparticle infusions by CED with enzymatic or hyperosmolar treatment
[4] = test system: hyaluronan (HA); assay: Histochemical assessment of hyaluronan degradation (HABP staining); assay type: in vivo, rat
Procedure: Degradation of HA was determined by staining with hyaluronic acid binding protein (HABP) following 1 μL infusions of 1000 U/mL hyaluronidase into the striatum following the same surgical procedure outlined above. Following degradation times of 30 min, 6, 12, and 24 hr brains were harvested and post-fixed in 4% paraformaldehyde in PBS at 4° C. for 4 days. The tissue was cryo-protected in 30% sucrose for 3 days, frozen at −70° C., and sectioned into 50 μm slices. Tissue slices were immersed in biotinylated HABP ([…], Calbiochem 385911) in PBS and left overnight on an orbital shaker. Slides were then immersed Alexa 555-Streptavidin conjugate (2 mg/mL, Invitrogen S21281) for two hours. Following several washing steps in PBS, stained slices were mounted with ProLong Gold Antifade media (Invitrogen P36930) and covered. Fluorescent images were captured using the same set-up described for nanoparticle imaging.

[5] = in 0.3% agarose; cited from earlier work
[6] = test system: xenografted tumors; details: following collagenase treatment of xenografted tumors; cited from earlier work

**Q.** For `OC[C@@H](O)[C@@H](O)[C@H](O)[C@H](O)CO` [Mannitol, mannitol], which “increase in the distribution volume of 40 nm liposomes” value [1] is on record?
**A.** The value was 50%.

**Q.** What about the “distribution volume of 2 kDa dextran” value [2] of the same compound?
**A.** The value was “unchanged”.

**Q.** And the “entrainment of nanoparticles in perivascular spaces / branched distribution indicative of perivascular transport” value ([3]; co-infusion of mannitol with nanoparticles)?
**A.** The value was “attenuated; also recorded: not observed”.

**Q.** What about the “increase in nanoparticle distribution volume” value ([3]; co-infusion with 25% mannitol, untreated tissue vs untreated tissue without mannitol) of the same compound?
**A.** The value was 133%.

**Q.** What about the “increase in nanoparticle distribution volume” value ([3]; mannitol co-infusion into enzyme-treated (24 hr hyaluronidase) tissue vs enzyme-treated tissue) of the same compound?
**A.** The value was 23%.

**Q.** With Hyaluronidase as the compound, how does the “degradation of HA by HABP staining” value ([4]; 30 min and 6 hr after 1 μL of 1000 U/mL) read?
**A.** The value was “some evidence of degradation”.

**Q.** And the “degradation of HA by HABP staining” value ([4]; 12 hr and 24 hr after 1 μL of 1000 U/mL)?
**A.** Its value is “widespread degradation of HA”.

**Q.** And the “degradation of HA by HABP staining” value ([4]; 24 hr incubation)?
**A.** Its value is “most complete digestion of HA”.

**Q.** What about the “effect on nanoparticle distribution volume” value ([3]; 30 min digestion with hyaluronidase) of the same compound?
**A.** Its value is “no measurable change; also recorded: no measurable effect”.

**Q.** What about the “increase in nanoparticle distribution volume” value ([3]; 24 hr digestion with hyaluronidase vs normal tissue) of the same compound?
**A.** The value was 70%.

**Q.** With albumin as the compound, how does the “diffusivity D” value [5] read?
**A.** The value was 8.3×10^−7 cm^2/s.

**Q.** Which “increase in the diffusivity of IgG” value [6] does the source give for collagenase here?
**A.** Its value is 100%.
